The target of assay [1] is T1, human μ opiate receptor (Homo sapiens, UniProt P35372).
T1 construct: purchased PerkinElmer Life Sciences, Zaventem, Belgium RB-HOM; host or cells: CHO-K1 cells (membrane preparation)
The assay is described as follows: Affinity for the human μ opiate receptor ([3H]-naloxone displacement, CHO-K1 receptor membrane preparation, SPA). In kind it is binding. As to conditions: 1.5 h, Table 3, to be read in the same way as Table 1; test concentration 1 μM; read-out: μ. An outline of the steps: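 CHO-K1 membranes expressing human μ receptor incubated 90 min at room temperature with 1 nmol/l [3H]-naloxone and WGA-SPA beads in 50 mmol/l Tris-HCl, 0.06% BSA; 100 μmol/l naloxone defines non-specific binding. Values are % inhibition of specific binding at 1 μM; IC50 converted to Ki by Cheng-Prusoff.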

Assay [2] has as its target T2, human bradykinin 1 receptor (B1R) (Homo sapiens, UniProt P46663).
T2 construct: expressed in transfected cells; host or cells: CHO K1 cells
T2 sequence (P46663 1-353): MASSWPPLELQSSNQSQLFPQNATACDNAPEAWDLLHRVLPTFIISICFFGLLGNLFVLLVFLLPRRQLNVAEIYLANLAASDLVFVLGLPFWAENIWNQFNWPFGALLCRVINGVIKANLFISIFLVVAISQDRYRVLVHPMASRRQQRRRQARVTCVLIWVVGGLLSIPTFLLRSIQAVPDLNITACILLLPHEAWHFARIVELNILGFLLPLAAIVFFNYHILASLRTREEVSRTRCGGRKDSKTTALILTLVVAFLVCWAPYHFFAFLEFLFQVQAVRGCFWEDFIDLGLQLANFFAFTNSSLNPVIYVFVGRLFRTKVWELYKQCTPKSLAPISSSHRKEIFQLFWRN
The assay is described as follows: Functional investigation on the human bradykinin 1 receptor (B1R), Ca2+ FLIPR assay in CHO K1 hB1R cells. The class given is cell-based. As to conditions: CHO-K1, B1R antagonism human, test substance 10 μM, read-out: B1R Ant. h [10 μM] % Inhibition. In a few lines:
(§1)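 Stably transfected CHO K1 cells loaded with Fluo-4; FLIPR Ca2+ fluorescence peak (ex 488/em 540 nm). Compound added first (agonism vs Lys-Des-Arg9-bradykinin ≥50 nM human, Des-Arg9-bradykinin 10 μM rat), then after 10-20 min agonist at EC80; antagonism as % inhibition, IC50 from concentration series, n=2-3, N≥2.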

The target in assay [3] is T3, bradykinin 1 receptor (B1R) of the rat (Rattus norvegicus, UniProt P97583).
T3 construct: expressed in transfected cells; host or cells: CHO K1 cells
T3 sequence (P97583 1-337): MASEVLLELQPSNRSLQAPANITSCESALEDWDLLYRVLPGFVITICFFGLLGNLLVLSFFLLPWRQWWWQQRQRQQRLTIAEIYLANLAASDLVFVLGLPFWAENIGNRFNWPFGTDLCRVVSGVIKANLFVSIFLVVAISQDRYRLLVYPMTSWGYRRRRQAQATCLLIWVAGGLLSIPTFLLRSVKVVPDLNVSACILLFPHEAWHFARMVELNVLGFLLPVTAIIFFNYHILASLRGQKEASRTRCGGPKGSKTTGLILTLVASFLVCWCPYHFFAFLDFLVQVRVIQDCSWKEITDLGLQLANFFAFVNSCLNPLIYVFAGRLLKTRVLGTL
The assay is described as follows: Functional investigation on the rat bradykinin 1 receptor (B1R), Ca2+ FLIPR assay in CHO K1 rB1R cells. The class given is cell-based. The conditions noted are these: CHO-K1, B1R antagonism rat, test substance 10 μM, read-out: B1R Ant. r [10 μM] % Inhibition. An outline of the steps:
as §1

The mark [4] stands for this setting: % inhibition compared with the maximum achievable inhibition.

Read-outs that look alike come from different tables or passages of the source.

T1 sequence (P35372 whole entry): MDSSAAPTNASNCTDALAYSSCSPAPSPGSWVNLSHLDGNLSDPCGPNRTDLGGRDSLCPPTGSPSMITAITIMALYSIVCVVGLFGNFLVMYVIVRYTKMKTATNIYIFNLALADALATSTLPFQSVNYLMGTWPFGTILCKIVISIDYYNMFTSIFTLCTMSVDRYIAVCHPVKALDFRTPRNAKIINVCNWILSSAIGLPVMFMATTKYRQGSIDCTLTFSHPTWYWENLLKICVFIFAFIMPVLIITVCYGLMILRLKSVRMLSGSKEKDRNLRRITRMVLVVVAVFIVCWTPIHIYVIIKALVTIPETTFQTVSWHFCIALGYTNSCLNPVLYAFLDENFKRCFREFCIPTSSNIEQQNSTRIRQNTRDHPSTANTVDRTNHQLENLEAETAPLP

For the compound `CN(CCOCC(=O)NC1CCC(C(CCc2ccccc2)N2CCOCC2)CC1)S(=O)(=O)c1c(Cl)cc(Cl)cc1Cl` (stereo not drawn) [Example 636, N-(4-(1-morpholino-3-phenylpropyl)cyclohexyl)-2-(2-(2,4,6-trichloro-N-methylphenylsulfonamido)ethoxy)acetamide], the inhibition at 1 µM in assay [1] was found to be 8%. In addition, the inhibition at 10 µM in assay [2] (Ca2+ FLIPR, CHO K1 hB1R cells) was 41%; in assay [3] (Ca2+ FLIPR, CHO K1 rB1R cells) it was 16%.

`CN1CCN(C(c2cccc(F)c2)C2CCN(C(=O)COCC3CCc4ccccc4N3S(=O)(=O)c3ccc(Cl)c(Cl)c3)CC2)CC1` (stereo not drawn) [Example 809, 2-((1-(3,4-dichlorophenylsulfonyl)-1,2,3,4-tetrahydroquinolin-2-yl)methoxy)-1-(4-((3-fluorophenyl)(4-methylpiperazin-1-yl)methyl)piperidin-1-yl)ethanone]: the inhibition at 1 µM in assay [1] turned out to be 6%. For the same compound, the results for the inhibition at 10 µM in assay [2] (setting [4]) and in assay [3] (setting [4]) were 109% and 87%, respectively.

In the case of `COc1cc(C)c(S(=O)(=O)N2CCCCC2COCC(=O)NC2CCC(C(c3ccccc3)N3CCN(C)CC3)CC2)c(C)c1` (stereo not drawn) [Example 735, 2-((1-(4-methoxy-2,6-dimethylphenylsulfonyl)piperidin-2-yl)methoxy)-N-(4-((4-methylpiperazin-1-yl)(phenyl)methyl)cyclohexyl)acetamide], the inhibition at 1 µM in assay [1] came to 56%. Moreover, the inhibition at 10 µM in assay [2] (Ca2+ FLIPR, CHO K1 hB1R cells) amounted to 103%; in assay [3] (Ca2+ FLIPR, CHO K1 rB1R cells), 103%.

Turning to `COc1cc(C)c(S(=O)(=O)N2CCC(OCC(=O)NCC3CCC(C(CCc4ccccc4)N4CCCC4)CC3)C2)c(C)c1` (stereo not drawn) [Example 726, 2-(1-(4-methoxy-2,6-dimethylphenylsulfonyl)pyrrolidin-3-yloxy)-N-((4-(3-phenyl-1-(pyrrolidin-1-yl)propyl)cyclohexyl)methyl)acetamide], the inhibition at 1 µM in assay [1] stood at 23%. In addition, the inhibition at 10 µM in assay [2] (Ca2+ FLIPR, CHO K1 hB1R cells) was 103%; in assay [3] (Ca2+ FLIPR, CHO K1 rB1R cells) it was 94%.

With `CN(CCOCC(=O)NC1CCC(C(CCc2ccccc2)N2CCOCC2)CC1)S(=O)(=O)c1c(Cl)cccc1Cl` (stereo not drawn) [Example 664, 2-(2-(2,6-dichloro-N-methylphenylsulfonamido)ethoxy)-N-(4-(1-morpholino-3-phenylpropyl)cyclohexyl)acetamide], the inhibition at 1 µM in assay [1] worked out at 5%. The inhibition at 10 µM in assay [2] (Ca2+ FLIPR, CHO K1 hB1R cells) stood at 70%; in assay [3] (Ca2+ FLIPR, CHO K1 rB1R cells) it was 11%.

Consider `CN(CCOCC(=O)NC1CCC(C(CCc2ccccc2)N2CCCCC2)CC1)S(=O)(=O)c1ccc(Cl)cc1Cl` (stereo not drawn) [Example 661, 2-(2-(2,4-dichloro-N-methylphenylsulfonamido)ethoxy)-N-(4-(3-phenyl-1-(piperidin-1-yl)propyl)cyclohexyl)acetamide], for which the inhibition at 1 µM in assay [1] was 21%. For the same compound, the inhibition at 10 µM amounted to 73% in assay [2] (Ca2+ FLIPR, CHO K1 hB1R cells) and 25% in assay [3] (Ca2+ FLIPR, CHO K1 rB1R cells).

Turning to `CN1CCN(C(c2ccccc2)C2CCC(NC(=O)COCCN(C)S(=O)(=O)c3c(Cl)cc(C(F)(F)F)cc3Cl)CC2)CC1` (stereo not drawn) [Example 690, 2-(2-(2,6-dichloro-N-methyl-4-(trifluoromethyl)phenylsulfonamido)ethoxy)-N-(4-((4-methylpiperazin-1-yl)(phenyl)methyl)cyclohexyl)acetamide], the inhibition at 1 µM in assay [1] is 26%. For the same compound, the inhibition at 10 µM came out at 54% in assay [2] (Ca2+ FLIPR, CHO K1 hB1R cells) and 30% in assay [3] (Ca2+ FLIPR, CHO K1 rB1R cells).

Regarding `COc1cc(C)c(S(=O)(=O)N2CCCCC2COCC(=O)NCC2CCC(C(c3ccccc3)N3CCCC3)CC2)c(C)c1` (stereo not drawn) [Example 657, 2-((1-(4-methoxy-2,6-dimethylphenylsulfonyl)piperidin-2-yl)methoxy)-N-((4-(phenyl(pyrrolidin-1-yl)methyl)cyclohexyl)methyl)acetamide], the inhibition at 1 µM in assay [1] is 84%. Moreover, the inhibition at 10 µM in assay [2] (Ca2+ FLIPR, CHO K1 hB1R cells) was 104%; in assay [3] (Ca2+ FLIPR, CHO K1 rB1R cells), 105%.

Turning to `COc1cc(C)c(S(=O)(=O)N(C)CCOCC(=O)NC2CCC(C(CCc3ccccc3)N3CCCCC3)CC2)c(C)c1` (stereo not drawn) [Example 663, 2-(2-(4-methoxy-N,2,6-trimethylphenylsulfonamido)ethoxy)-N-(4-(3-phenyl-1-(piperidin-1-yl)propyl)cyclohexyl)acetamide], in assay [1], the inhibition at 1 µM came to 26%. The inhibition at 10 µM in assay [2] (Ca2+ FLIPR, CHO K1 hB1R cells) is 103%; in assay [3] (Ca2+ FLIPR, CHO K1 rB1R cells) it was 95%.

In the case of `COc1cc(C)c(S(=O)(=O)N2CCC(OCC(=O)NCC3CCC(C(CCc4ccccc4)N4CCOCC4)CC3)C2)c(C)c1` (stereo not drawn) [Example 725, 2-(1-(4-methoxy-2,6-dimethylphenylsulfonyl)pyrrolidin-3-yloxy)-N-((4-(1-morpholino-3-phenylpropyl)cyclohexyl)methyl)acetamide], the inhibition at 1 µM in assay [1] came out at 10%. In addition, the inhibition at 10 µM worked out at 96% in assay [2] (Ca2+ FLIPR, CHO K1 hB1R cells) and 63% in assay [3] (Ca2+ FLIPR, CHO K1 rB1R cells).

For the compound `CN(CCOCC(=O)NC1CCC(C(c2ccccc2)N2CCOCC2)CC1)S(=O)(=O)c1c(Cl)cccc1Cl` (stereo not drawn) [Example 683, 2-(2-(2,6-dichloro-N-methylphenylsulfonamido)ethoxy)-N-(4-(morpholino(phenyl)methyl)cyclohexyl)acetamide], the inhibition at 1 µM in assay [1] was 5%. In addition, the inhibition at 10 µM in assay [2] (Ca2+ FLIPR, CHO K1 hB1R cells) was determined as 32%; in assay [3] (Ca2+ FLIPR, CHO K1 rB1R cells), 48%.

As to `O=C(COC1CCCN(S(=O)(=O)c2c(Cl)cc(Cl)cc2Cl)C1)NC1CCC(C(c2ccccc2)N2CCCC2)CC1` (stereo not drawn) [Example 631, N-(4-(phenyl(pyrrolidin-1-yl)methyl)cyclohexyl)-2-(1-(2,4,6-trichlorophenylsulfonyl)piperidin-3-yloxy)acetamide], the inhibition at 1 µM in assay [1] was determined as 88%. In addition, the inhibition at 10 µM in assay [2] (Ca2+ FLIPR, CHO K1 hB1R cells) is 92%; in assay [3] (Ca2+ FLIPR, CHO K1 rB1R cells), 87%.

For the compound `O=C(COCC1CCCCN1S(=O)(=O)c1c(Cl)cc(Cl)cc1Cl)NC1CCC(C(c2ccccc2)N2CCOCC2)CC1` (stereo not drawn) [Example 700, N-(4-(morpholino(phenyl)methyl)cyclohexyl)-2-((1-(2,4,6-trichlorophenylsulfonyl)piperidin-2-yl)methoxy)acetamide], the inhibition at 1 µM in assay [1] was found to be 27%. For the same compound, the inhibition at 10 µM in assay [2] (Ca2+ FLIPR, CHO K1 hB1R cells) was found to be 38%; in assay [3] (Ca2+ FLIPR, CHO K1 rB1R cells), 89%.

On to `O=C(COCC1CCCN(S(=O)(=O)c2c(Cl)cc(Cl)cc2Cl)C1)NCC1CCC(C(CCc2ccccc2)N2CCCC2)CC1` (stereo not drawn) [Example 759, N-((4-(3-phenyl-1-(pyrrolidin-1-yl)propyl)cyclohexyl)methyl)-2-((1-(2,4,6-trichlorophenylsulfonyl)piperidin-3-yl)methoxy)acetamide], for which the inhibition at 1 µM in assay [1] was 87%. For the same compound, the inhibition at 10 µM in assay [2] (Ca2+ FLIPR, CHO K1 hB1R cells) amounted to 100%; in assay [3] (Ca2+ FLIPR, CHO K1 rB1R cells), 56%.

With `CN(CCOCC(=O)NC1CCC(C(CCc2ccccc2)N2CCCCC2)CC1)S(=O)(=O)c1c(Cl)cc(Cl)cc1Cl` (stereo not drawn) [Example 637, N-(4-(3-phenyl-1-(piperidin-1-yl)propyl)cyclohexyl)-2-(2-(2,4,6-trichloro-N-methylphenylsulfonamido)ethoxy)acetamide], the inhibition at 1 µM in assay [1] is 35%. Further, the inhibition at 10 µM in assay [2] (Ca2+ FLIPR, CHO K1 hB1R cells) was determined as 85%; in assay [3] (Ca2+ FLIPR, CHO K1 rB1R cells), 45%.

`O=C(COCC1CCCN(S(=O)(=O)c2c(Cl)cc(Cl)cc2Cl)C1)NC1CCC(C(CCc2ccccc2)N2CCOCC2)CC1` (stereo not drawn) [Example 741, N-(4-(1-morpholino-3-phenylpropyl)cyclohexyl)-2-((1-(2,4,6-trichlorophenylsulfonyl)piperidin-3-yl)methoxy)acetamide]: the inhibition at 1 µM in assay [1] was 16%. Also, the inhibition at 10 µM in assay [2] (Ca2+ FLIPR, CHO K1 hB1R cells) is -5%; in assay [3] (Ca2+ FLIPR, CHO K1 rB1R cells), 46%.
